Results published in patent publication US4171363A, “1,2,3-Thiadiazole process” (priority 1978, dated 1979).
Structures can show the parent of a compound that is named as a salt. One block for each compound: values may come before it.

Assays:
α-adrenergic receptor [1] = biological target: T1, α-adrenergic receptor (Rattus norvegicus, UniProt P43140); assay: isolated rat seminal vesicle assay, in vitro α-adrenergic receptor blocking effect against norepinephrine; settings: relative to prazosin; isolated rat seminal vesicle, test compound 10 nanograms/ml, norepinephrine agonist
T1 construct: Seminal vesicles were removed and transferred to a shallow disk containing modified Tyrode's solution; from tissue; host or cells: isolated seminal vesicle of male Long Evans rats
T1 sequence (P43140 1-466): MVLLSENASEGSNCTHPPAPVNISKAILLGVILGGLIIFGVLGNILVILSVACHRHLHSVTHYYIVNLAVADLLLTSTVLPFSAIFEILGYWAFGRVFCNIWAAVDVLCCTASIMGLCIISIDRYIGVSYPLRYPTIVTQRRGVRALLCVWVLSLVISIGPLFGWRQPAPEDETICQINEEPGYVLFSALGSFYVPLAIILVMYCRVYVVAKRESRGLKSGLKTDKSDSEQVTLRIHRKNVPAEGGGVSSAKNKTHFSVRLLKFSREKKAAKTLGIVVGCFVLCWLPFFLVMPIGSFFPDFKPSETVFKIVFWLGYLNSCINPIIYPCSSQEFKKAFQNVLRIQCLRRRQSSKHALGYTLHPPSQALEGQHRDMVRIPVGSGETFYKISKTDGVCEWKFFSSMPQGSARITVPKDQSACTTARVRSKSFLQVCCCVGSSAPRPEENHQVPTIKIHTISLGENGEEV
Method: (§1) In Table 1, antihypertensive activity was determined by oral administration to spontaneous hypertensive rats, the in vitro α-adrenergic receptor blocking effect was determined according to the following test method.
(§2) Dungan et al, Int. […] Lietch et al, Brit.
(§3) Male Long Evans rats weighing approximately 300 g. were sacrificed by a sharp blow on the head. Seminal vesicles were removed and transferred to a shallow disk containing modified Tyrode's solution. The vesicles were emptied of their contents by squeezing them gently with a pair of forceps. Silk thread (4-0) was attached to both ends of the vesicle and it was suspended in a 20 ml. muscle chamber containing modified oxygenated Tyrode's solution (g./liter: NaCl 8, KCl 0.2, CaCl2 0.26, NaHCO3 1, Na2 HPO4 0.0575, glucose 0.5 and MgCl2 0.02). The bathing fluid was maintained at 37° C. with a thermostatically controlled isolated organ tissue bath. Contractions were recorded isometrically by means of a force displacement transducer and recordings were made with a Beckman RP Dynograph. Norepinephrine (NE) was added to the muscle chamber in volumes ranging from 0.1 to 0.4 ml. with a one ml. syringe attached to a 3 inch 20 gauge needle. NE and test compounds were dissolved in deionized water.
(§4) NE response curves were obtained alone and in the presence of test compounds. NE was allowed to remain in contact with the strip until a maximal contraction was obtained. The strip was then washed with the perfusion fluid for 15-30 seconds and the preparation was allowed to return to base line before a subsequent dose of NE was given. Increasing amounts of NE were injected into the bath in the same manner until a complete dose response was obtained.
(§5) The seminal vesicles used to obtain the control NE dose response were discarded and new preparations were placed in the tissue bath for evaluation of the test compound. The test compound was added directly to the perfursion fluid (10 nanograms/ml.) and the strips were allowed to remain in contact with the bathing media for at least 10 minutes before the NE dose response was determined.
(§6) ED50 values for NE were obtained by regression analysis as described by Finney, Probit. Analysis, 2d Ed., Cambridge (1964). A minimum of 4 strips and at least 4 doses were employed to calculate the regression lines. The ED50 value is defined as the concentration of NE which produces a contraction equal to 50% of the maximal contraction.

α-adrenergic receptor [2] = assay: as above; settings: antihypertensive activity ratio (A) over α-adrenergic blocking activity ratio (B)
Method: as §1, §2, §3, §4, §5, §6

[3] = tested on: spontaneous hypertensive rats; assay: antihypertensive activity by oral administration to spontaneous hypertensive rats; format: in vivo, rat; settings: for ED50 / Antihypertensive Activity Ratio (A): oral, spontaneous hypertensive rat; for ED50: read-out: Antihypertensive ED50 mm Hg; for Antihypertensive Activity Ratio (A): relative to prazosin
Method: as §1

humans = settings: cited from earlier work
patients = settings: human, in vivo; cited from earlier work

SMILES: COc1cc2nc(N3CCN(C(=O)c4cnns4)CC3)nc(N)c2cc1OC.Cl [Example 3, 4-Amino-6,7-dimethoxy-2-[4-(1,2,3-thiadiazole-5-carbonyl)piperazin-1-yl]quinazoline Hydrochloride]
- α-Adr. Bl. Activity Ratio (B) (α-adrenergic receptor [1]): 0.23
- Ratio A/B (α-adrenergic receptor [2]): 2.3
- ED50 [3]: 4 mg/kg
- Antihypertensive Activity Ratio (A) [3]: 0.53

SMILES: COc1cc2c(N)nc(N3CCN(C(=O)OCC(C)(C)O)CC3)nc2c(OC)c1OC [Trimazosin]
- antihypertensive strength compared to prazosin (in words) (humans; clinical daily dose approximately 150 to 500 mg. for trimazosin, 1.5 to 15 mg. for prazosin): much weaker drug than prazosin
- antihypertensive activity in humans (in words) (humans; humans): active in humans as an antihypertensive agent

SMILES: COc1cc2nc(N3CCN(C(=O)c4ccco4)CC3)nc(N)c2cc1OC [prazosin, 2-[4-(2-furoyl)-piperazin-1-yl]-4-amino-6,7-dimethoxyquinazoline, reference compound]
- ED50 [3]: 2.1 mg/kg
- adverse reactions, recent reports (in words) (patients): severe adverse reactions of postural hypotension in some patients

SMILES: COc1cc2nc(N3CCN(C(=O)c4csnn4)CC3)nc(N)c2cc1OC.Cl [Example 2, 4Amino-6,7-dimethoxy-2-[4-(1,2,3-thiadiazole-4-carbonyl)piperazin-1-yl]quinazoline Hydrochloride]
- α-Adr. Bl. Activity Ratio (B) (α-adrenergic receptor [1]): 0.27
- Ratio A/B (α-adrenergic receptor [2]): 2.0
- ED50 [3]: 4 mg/kg
- Antihypertensive Activity Ratio (A) [3]: 0.53

- α-Adr. Bl. Activity Ratio (B) (α-adrenergic receptor [1]): 0.15
SMILES: CCOC(=O)Nc1snnc1C(=O)N1CCN(c2nc(N)c3cc(OC)c(OC)cc3n2)CC1 [Example 1, 4-Amino-6,7-dimethoxy-2-[4-(5-ethoxycarbonylamino-1,2,3-thiadiazole-4-carbonyl)-piperazin-1-vl]-quinazoline Hydrochloride]
- Ratio A/B (α-adrenergic receptor [2]): 5.0
- reduction in systolic blood pressure ([3]; 24 hours after oral dose of 10 mg./kg., spontaneous hypertensive rats): 22%
- ED50 [3]: 2.8 mg/kg
- Antihypertensive Activity Ratio (A) [3]: 0.75
